According to PubChem BioAssay AID1845209 (Molecular Pharmacology Branch, DTP, NCI, 2023):
pIC50: −log10 of the molar value.

Test system: NCI-H211 tumor spheroids, viability percent test/control
Assay: Anticancer human tumor NCI-H211 cell line growth inhibition;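 note: spheroids exposed to agents for seven days before readout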
Details: spheroids with HUVEC and MSC; for pIC50: curve of first compound; for viability, T/C: stronger effect = lower value
Excerpt: Multicellular complex tumor spheroid response to DNA repair inhibitors in combination with DNA-damaging drugs
This study explores the anticancer activities of DNA-damaging drugs and inhibitors of DNA damage repair, both as single agents and in combinations. Complex tumor spheroids comprised of malignant cells, endothelial cells and mesenchymal stem cells served as an in vitro model for human solid tumors. This model system incorporates physiologically relevant features and patient-derived or established malignant cell lines with clinically relevant genetic alterations from many tumor types. Twenty-six patient-derived or established malignant cell lines were evaluated representing sarcoma, melanoma, small cell lung cancer (SCLC), non-small cell lung cancer (NSCLC), as well as bladder, ovarian and pancreatic cancers. The concentration ranges selected for each drug and investigational agent were based upon clinically achievable concentrations if the clinical Cmax of the agent was known.
Compounds. The drugs and compounds olaparib (NSC753686), talazoparib (NSC767125), berzosertib (NSC777718), elimusertib (NSC800525), nedisertib (NSC802822), VX-984 (NSC792969), AZD-1390 (NSC803789), temozolomide (NSC362856), topotecan (NSC609699), trabectedin (NSC813783), staurosporine (NSC755774), and gemcitabine (NSC613327) were obtained from the National Cancer Institute (NCI) Developmental Therapeutics Program Chemical Repository. The FDA-approved anticancer drug set is available from the Developmental Therapeutics Program at https://dtp.cancer.gov/organization/dscb/obtaining/available_plates.htm. […] The stock solutions were prepared in dimethyl sulfoxide (DMSO, Sigma-Aldrich, St. Louis, MO, cat. D2650) at 400-fold the tested concentration and stored at -70 degrees C. Prior to their use, the stock solutions were diluted in fresh medium and the final DMSO concentration in the assay was 0.25% (v/v). All drugs and investigational agents were tested over a range starting from a high concentration at or near the clinical Cmax and decreasing in half-log increments. If the clinical Cmax for an agent had not been determined, the highest concentration tested was 10 microM.
Cell Lines. The patient-derived cancer cell (PDC) lines: 156681-154-R-J1-PDC, 283228-195-R-J1-PDC, 287954-098-R-J1-PDC, 292921-168-R-J2-PDC, 349418-098-R-PDC, 425362-245-T-J1-PDC, 556581-035-R-J1-PDC, and BL0293-F563-PDC were received from the NCI Patient-Derived Models Repository (PDMR, https://pdmr.cancer.gov). The established cell lines HS-SY-2 (RRID:CVCL_8719), MPNST, and SYO-1 (RRID:CVCL_7146) were obtained from the Sloan Kettering Institute. The alveolar soft parts sarcoma cell line ASPS-1 (RRID:CVCL_S738) was established at the NCI and grown from internal seed stocks. The following established cell lines were purchased from the American Type Culture Collection (ATCC, Manassas, VA): G-401 (ATCC, cat. CRL-1441, RRID:CVCL_0270), SW982 (ATCC, cat. HTB-93, RRID:CVCL_1734), VA-ES-BJ (ATCC, cat. CRL-2138, RRID:CVCL_1785), NCI-H719 (ATCC, cat. CRL-5837, RRID:CVCL_1582), NCI-H196 (ATCC, cat. CRL-5823, RRID:CVCL_1509), NCI-H841 (ATCC, cat. CRL-5845, RRID:CVCL_1595), NCI-H1618 (ATCC, cat. CRL-5879, RRID:CVCL_1480), NCI-H1876 (ATCC, cat. CRL-5902, RRID:CVCL_1503), DMS 114 (ATCC, cat. CRL-2066; RRID:CVCL_1174), NCI-H211 (ATCC, cat. CRL-5824; RRID:CVCL_1529), and SW 1271 (ATCC, cat. CRL-2177, RRID:CVCL_1716). The small cell lung cancer cell line COR-L88 was purchased from Sigma-Aldrich (cat. 92031917-1VL, RRID:CVCL_1141). The non-small cell lung cancer cell lines NCI-H226 (RRID:CVCL_1544) and NCI-H322M (RRID:CVCL_1557) were established at the NCI and grown from internal seed stocks. Pooled donor human umbilical vein endothelial cells (HUVEC, Lonza, cat. CC-2519) and human mesenchymal stem cells (hMSC, Lonza, cat. PT-2501) were purchased from Lonza (Walkersville, MD).
Cell Culture. All cells were maintained in an incubator at 37 degrees C and 5% CO2 with 95% humidity. […]

[1] = second compound 0.003 µM, first compound 0.00949 µM
[2] = second compound 0.003 µM, first compound 0.03 µM
[3] = second compound 0.003 µM, first compound 0.0949 µM
[4] = second compound 0.003 µM, first compound 0.3 µM
[5] = second compound 0.003 µM, first compound 0.949 µM
[6] = second compound 0.003 µM, first compound 3 µM
[7] = second compound 0.00949 µM, first compound 0.00949 µM
[8] = second compound 0.00949 µM, first compound 0.03 µM
[9] = second compound 0.00949 µM, first compound 0.0949 µM
[10] = second compound 0.00949 µM, first compound 0.3 µM
[11] = second compound 0.00949 µM, first compound 0.949 µM
[12] = second compound 0.00949 µM, first compound 3 µM
[13] = second compound 0.03 µM, first compound 0.00949 µM
[14] = second compound 0.03 µM, first compound 0.03 µM
[15] = second compound 0.03 µM, first compound 0.0949 µM
[16] = second compound 0.03 µM, first compound 0.3 µM
[17] = second compound 0.03 µM, first compound 0.949 µM
[18] = second compound 0.03 µM, first compound 3 µM
[19] = second compound 0.0949 µM, first compound 0.00949 µM
[20] = second compound 0.0949 µM, first compound 0.03 µM
[21] = second compound 0.0949 µM, first compound 0.0949 µM
[22] = second compound 0.0949 µM, first compound 0.3 µM
[23] = second compound 0.0949 µM, first compound 0.949 µM
[24] = second compound 0.0949 µM, first compound 3 µM
[25] = second compound 0.3 µM, first compound 0.00949 µM
[26] = second compound 0.3 µM, first compound 0.03 µM
[27] = second compound 0.3 µM, first compound 0.0949 µM
[28] = second compound 0.3 µM, first compound 0.3 µM
[29] = second compound 0.3 µM, first compound 0.949 µM
[30] = second compound 0.3 µM, first compound 3 µM

Row | SMILES | pIC50 (second compound 0.003 µM) | pIC50 (second compound 0.00949 µM) | pIC50 (second compound 0.03 µM) | pIC50 (second compound 0.0949 µM) | pIC50 (second compound 0.3 µM) | viability, T/C [3] [%] | viability, T/C [4] [%] | viability, T/C [5] [%] | viability, T/C [6] [%] | viability, T/C [9] [%] | viability, T/C [10] [%] | viability, T/C [11] [%] | viability, T/C [12] [%] | viability, T/C [15] [%] | viability, T/C [16] [%] | viability, T/C [17] [%] | viability, T/C [18] [%] | viability, T/C [21] [%] | viability, T/C [22] [%] | viability, T/C [23] [%] | also measured
1 | CNCc1ccc(-c2cc(-c3nc(-c4ccc(S(=O)(=O)C(C)C)cc4)cnc3N)on2)cc1 + CC[C@@]1(O)C(=O)OCc2c1cc1n(c2=O)Cc2cc3c(CN(C)C)c(O)ccc3nc2-1 | 8.02 | > 8.02 | > 8.02 | > 8.02 | > 8.02 | 0.85 | 0.92 | 0.05 | 0.11 | 1.06 | 1.09 | 0.11 | 0.11 | 0.97 | 1.07 | 0.14 | 0.11 | 1.06 | 0.67 | 0.12 | viability, T/C [1]: 50.5%; viability, T/C [2]: 9.5%; viability, T/C [7]: 3.19%; viability, T/C [8]: 1.35%; viability, T/C [13]: 0.96%; viability, T/C [14]: 0.98%; viability, T/C [19]: 1.04%; viability, T/C [20]: 1.29%; viability, T/C [24]: 0.13%; viability, T/C [25]: 0.95%; viability, T/C [26]: 1.15%; viability, T/C [27]: 1.37%; viability, T/C [28]: 0.82%; viability, T/C [29]: 0.21%; viability, T/C [30]: 0.18%
2 | Cn1ncnc1[C@H]1c2n[nH]c(=O)c3cc(F)cc(c23)N[C@@H]1c1ccc(F)cc1 + CC[C@@]1(O)C(=O)OCc2c1cc1n(c2=O)Cc2cc3c(CN(C)C)c(O)ccc3nc2-1 | > 8.02 | > 8.02 | > 8.02 | > 8.02 | > 8.02 | 1.05 | 1.13 | 1.18 | 1.13 | 1.24 | 1.21 | 1.11 | 1.49 | 1.25 | 1.13 | 1.14 | 1.06 | 1.17 | 1.17 | 1.1 | viability, T/C [1]: 1.01%; viability, T/C [2]: 1.19%; viability, T/C [7]: 1.17%; viability, T/C [8]: 1.18%; viability, T/C [13]: 0.91%; viability, T/C [14]: 1.11%; viability, T/C [19]: 1.14%; viability, T/C [20]: 1.25%; viability, T/C [24]: 1.34%; viability, T/C [25]: 1.06%; viability, T/C [26]: 1.01%; viability, T/C [27]: 1.1%; viability, T/C [28]: 1.37%; viability, T/C [29]: 1.05%; viability, T/C [30]: 1.06%
3 | O=C(c1cc(Cc2n[nH]c(=O)c3ccccc23)ccc1F)N1CCN(C(=O)C2CC2)CC1 + CC[C@@]1(O)C(=O)OCc2c1cc1n(c2=O)Cc2cc3c(CN(C)C)c(O)ccc3nc2-1 | > 7.02 | > 7.02 | > 7.02 | > 7.02 | > 7.02 | 9.62 | 3.33 | 1.25 | 1.06 | 1.09 | 1.14 | 1.15 | 1.2 | 1.07 | 1.19 | 1.2 | 1.12 | 1.07 | 1.03 | 1.31 | viability, T/C (second compound 0.003 µM, first compound 9.49 µM): 0.76%; viability, T/C (second compound 0.003 µM, first compound 30 µM): 0.99%; viability, T/C (second compound 0.00949 µM, first compound 9.49 µM): 1.06%; viability, T/C (second compound 0.00949 µM, first compound 30 µM): 0.96%; viability, T/C (second compound 0.03 µM, first compound 9.49 µM): 0.99%; viability, T/C (second compound 0.03 µM, first compound 30 µM): 0.78%; viability, T/C [24]: 1.37%; viability, T/C (second compound 0.0949 µM, first compound 9.49 µM): 0.98%; viability, T/C (second compound 0.0949 µM, first compound 30 µM): 1.09%; viability, T/C [27]: 1.03%; viability, T/C [28]: 1.25%; viability, T/C [29]: 1%; viability, T/C [30]: 1.05%; viability, T/C (second compound 0.3 µM, first compound 9.49 µM): 1%; viability, T/C (second compound 0.3 µM, first compound 30 µM): 0.91%
